Read-outs that look alike come from different tables or passages of the source. Marks after values point to notes of the source that are not given here.
Experiments:
human 5-HT2A receptor [1] = target: T1, human 5-HT2A receptor (Homo sapiens, UniProt P28223); test: 5-HT2A receptor radioligand binding assay ([3H]-ketanserin, CHO-K1 membranes); details: radioligand binding, compound 13 vs compound 3
T1 construct: purchased PerkinElmer; host or cells: CHO-K1 cells, stably transfected
Description: Stock solutions of tested compounds (10 mM) were prepared in DMSO. […] Each compound was tested in eight concentrations from 10^–5 to 10^–12 M (final concentration).
Radioligand binding was performed using membranes from CHO-K1 cells stably transfected with the human 5-HT2A receptor (PerkinElmer). All assays were carried out in duplicates. Data were fitted to a one-site curve-fitting equation with Prism 6 (GraphPad Software) and Ki values were estimated from the Cheng − Prusoff equation. The full description of this assay is in Supplementary material.
Mianserin (10 μM) was used to define nonspecific binding. […] The reaction was terminated by rapid filtration through GF/B filter mate presoaked with 0.5% polyethyleneimine for 30 minutes. Ten rapid washes with 200 µl 50 mM Tris buffer (4°C, pH 7.4) were performed using automated harvester system Harvester-96 MACH III FM (Tomtec). […] Radioactivity was counted in MicroBeta2 scintillation counter (PerkinElmer).

[2] = tested on: whole rat blood aggregation induced by collagen; test: In vitro whole rat blood aggregation induced by collagen (Multiplate); type: cell-based; details: collagen 1.6 μg/ml, na = not active
Description: (§1) In vitro aggregation assays were performed using freshly drawn whole rat blood with a Multiplate platelet function analyzer (Roche Diagnostic), the five-channel aggregometer based on measurements of electric impedance. Blood was collected from carotid arteries with a hirudin blood tube (Roche Diagnostic). 300 μl of hirudin anticoagulated blood was mixed with 300 μl prewarmed isotonic saline solution containing studied compound or vehicle (deionized water or DMSO 0.1%) and preincubated for 3 min at 37 °C with continuous stirring. Aggregation was induced by adding collagen (Hyphen-Biomed, France) (final concentration 1.6 µg/ml), 5-HT (30 µM) and sub-threshold concentration of collagen (0.8 µg/ml), 5-HT (6 µM) and sub-threshold concentration of ADP (ADP test, Roche Diagnostic), (1.6 µM). The aggregation process was recorded for 6 min. Ketanserin (ketanserin ( +) tartrate salt, Sigma-Aldrich, Germany), sarpogrelate (sarpogrelate hydrochloride, Sigma-Aldrich, Germany), and aspirin (Tocris, UK) were used as reference compounds. The Multiplate software analyzed the area under the curve (AUC) of the clotting process of each measurement and calculated the mean values. Each concentration of studied compounds was tested at least three times. The exact sample size (n value) is presented on Figs. 2–4. Concentration-inhibition curves were constructed and analyzed by non-linear curve fitting using GraphPad Prism 6.0 (GraphPad Software Inc., San Diego, CA, USA).

[3] = tested on: whole rat blood aggregation induced by 5-HT and collagen; test: In vitro whole rat blood aggregation induced by 5-HT and sub-threshold collagen; type: cell-based; details: 5-HT 30 μM and collagen 0.8 μg/ml, read-out: b (5-HT + collagen) IC50
Description: as §1

[4] = tested on: whole rat blood aggregation induced by 5-HT and ADP; test: In vitro whole rat blood aggregation induced by 5-HT and sub-threshold ADP; type: cell-based; details: 5-HT 6 μM and ADP 1.6 μM, na = not active, read-out: c (5-HT + ADP) IC50
Description: as §1

5-HT2A receptor = details: cited from earlier work
[5] = target: T2, 5-HT2A receptors in rat aorta (Rattus norvegicus, UniProt P14842); details: already published; cited from earlier work
T2 construct: Isolated rat aorta was used to determine the antagonistic activity of studied compounds for 5HT2A-receptors; from tissue; host or cells: aortic rings of male Wistar rats, denuded of the endothelium
T2 sequence (P14842 whole entry): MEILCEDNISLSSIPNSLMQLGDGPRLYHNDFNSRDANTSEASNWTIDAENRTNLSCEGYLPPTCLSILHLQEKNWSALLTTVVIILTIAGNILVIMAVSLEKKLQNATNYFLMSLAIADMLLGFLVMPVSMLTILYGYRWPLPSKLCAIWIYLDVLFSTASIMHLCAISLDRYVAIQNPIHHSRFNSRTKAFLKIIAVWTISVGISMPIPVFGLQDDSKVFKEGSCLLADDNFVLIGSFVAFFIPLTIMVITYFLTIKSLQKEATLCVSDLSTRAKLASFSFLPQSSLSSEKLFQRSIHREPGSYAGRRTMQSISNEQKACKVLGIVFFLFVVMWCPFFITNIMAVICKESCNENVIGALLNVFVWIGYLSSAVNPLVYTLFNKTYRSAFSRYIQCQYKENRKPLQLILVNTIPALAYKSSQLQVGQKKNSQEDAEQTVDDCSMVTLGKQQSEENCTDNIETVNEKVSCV

[6] = target: serotonin 5-HT1A receptor; set-up: method as in Czopek et al., Acta Pol. Pharm. 73 (2016) 1545–1554; details: ref Czopek et al., Acta Pol. Pharm. 73 (2016) 1545–1554; read-out: Ki ± SEM [nM] 5-HT1A; cited from earlier work
dopamine D2 receptor = target: dopamine D2 receptor; set-up: method as in Czopek et al., Acta Pol. Pharm. 73 (2016) 1545–1554; details: ref Czopek et al., Acta Pol. Pharm. 73 (2016) 1545–1554; read-out: Ki ± SEM [nM] D2; cited from earlier work
human 5-HT2A receptor [7] = target: T1, human 5-HT2A receptor; set-up: method as in PMID 29111111; details: cells expressing human 5-HT2A receptors; already published; cited from earlier work
[8] = tested on: whole rat blood aggregation induced by 5-HT and ADP; set-up: method as in PMID 29111111; details: 5-HT 6 μM and ADP 1.6 μM, already published, read-out: c (5-HT + ADP) IC50; cited from earlier work

T1 sequence (P28223 whole entry): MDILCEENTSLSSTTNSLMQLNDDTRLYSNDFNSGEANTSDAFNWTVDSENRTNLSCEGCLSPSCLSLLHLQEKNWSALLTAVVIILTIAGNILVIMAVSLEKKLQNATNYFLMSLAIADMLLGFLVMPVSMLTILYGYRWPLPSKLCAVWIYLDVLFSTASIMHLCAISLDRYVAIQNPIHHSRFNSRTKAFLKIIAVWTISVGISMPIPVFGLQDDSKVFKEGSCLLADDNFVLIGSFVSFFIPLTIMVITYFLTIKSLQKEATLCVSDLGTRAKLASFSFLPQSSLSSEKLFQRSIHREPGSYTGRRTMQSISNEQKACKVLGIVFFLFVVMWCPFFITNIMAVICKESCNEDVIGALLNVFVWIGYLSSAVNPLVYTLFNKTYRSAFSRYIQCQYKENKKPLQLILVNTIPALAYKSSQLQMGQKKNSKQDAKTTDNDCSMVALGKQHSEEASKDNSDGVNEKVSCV

Row | SMILES | fold higher affinity for 5-HT2A compared to compound 3 (human 5-HT2A receptor [1]) | IC50 [2] | IC50 [3] | IC50 [4] | Ki (5-HT2A receptor; 5-HT2A receptors, previous studies, read-out: Ki (5-HT2A) of earlier hydantoin leads) | pKB ± SEM a [5] | Ki [6] | Ki (dopamine D2 receptor) | pKB ± SEM b (human 5-HT2A receptor [7]) | IC50 [8] | Ki (5-HT2A receptor; Table S1, ref Czopek et al., Acta Pol. Pharm. 73 (2016) 1545–1554, read-out: Ki ± SEM [nM] 5-HT2A) | Ki (5-HT2A receptor; serotonin 5-HT2A receptors, already published and re-printed for comparison, read-out: Ki [nM] ± SEM)
1 | O=C1NC2(CCC(c3ccccc3)CC2)C(=O)N1CCCN1CCN(c2ccccc2)CC1 (stereo not shown) [Compound 13, 8-phenyl-3-(3-(4-phenylpiperazin-1-yl)propyl)-1,3-diazaspiro[4.5]decane-2,4-dione] | over 25 fold | 27.3 ± 3.8 µM | 53.3 ± 4.6 µM | 9.9 ± 2.5 µM | 50 nM | 7.665 ± 0.03^a | 1670 ± 75 nM | > 10000 nM |  |  |  | 
2 | COc1cccc(CCc2ccccc2OCC(CN(C)C)OC(=O)CCC(=O)O)c1 (stereo not shown) [Sarpogrelate] |  | 66.8 ± 12.9 µM |  |  |  | 8.220 ± 0.08^b |  |  | 7.296 ± 0.04^b | 22.7 ± 2.1 µM |  | 
3 | O=C1NC2(CCC(c3ccccc3)CC2)C(=O)N1CCCN1CCN(c2cccc(Cl)c2)CC1 (stereo not shown) [Compound 14, 3-(3-(4-(3-chlorophenyl)piperazin-1-yl)propyl)-8-phenyl-1,3-diazaspiro[4.5]decane-2,4-dione] |  |  | 75.8 ± 16.6 µM | 93.8 ± 9.4 µM |  | 7.110 ± 0.05^a | 5210 ± 268 nM | > 10000 nM |  |  | 56 ± 7 nM | 24 ± 2.5 nM
